# Tests used:
# [1] = Capsule perfume leakage in liquid fabric enhancer (LFE), headspace SPME GC/MS; assay type: physicochemical
# Description: The testing of capsule leakage in liquid compositions (e.g., liquid fabric enhancer/“LFE” compositions and/or heavy-duty liquid/“HDL” detergents) is performed as follows. […] The 1 gram aliquot in the 7 ml vial is then mixed on a stirring plate for 24 h at 500 rpm, thereby ensuring that the capsules are broken by the grinding action of the stir bar against the bottom of the 7 ml vial. Optical microscopy can be used to verify that no more intact capsules remain. In case such capsules are found, the step is to repeated for an additional 24 h, or until all or almost all capsules are broken. Then, the formulation containing broken capsules is introduced into GC vials in a similar manner as for step (a). This yields total oil samples. It is to be noted that the capsule sample and the total oil sample are not analyzed on the same day, as there is a need to prepare the total oil sample after the capsule sample has been removed from storage. […] The perfume oil composition formulated herein is representative of the perfume oil composition that is present in the slurry. Then the free oil formulation is introduced into GC vials in a similar manner as for step (a). This yields reference samples, which must be used when analyzing both the capsule sample and the total oil sample. […] Two headspace vials are prepared for each sample. The sealed headspace vials are then allowed to equilibrate. Samples reach equilibrium after 3 hours at room temperature, but can be left to sit longer without detriment or change to the results, up until 24 hours after sealing the headspace vial. After equilibrating, the samples are analyzed by GC/MS. […] The perfume composition is analyzed by fast GC/MS in full scan mode. Ion extraction of the specific mass for each component is obtained. The leakage is calculated as follows, separately for the capsule sample and total oil sample, where “Area” denotes the area under the chromatogram peak corresponding to the PRM of interest: Once calculated for all PRMs for both the total oil sample and the capsule sample, the corrected PRM leakage can be calculated using the following formula: Once the corrected PRM leakage has been calculated for all PRMs, the Average leakage can be found by taking the arithmetic mean of each corrected PRM leakage. […] The resulting products are stored for one week at 35° C. At the end of the storage period, samples of each product composition are analyzed for perfume leakage out of the capsule using headspace analysis. The data is reported as a percentage, determined by comparing the amount of the individual perfume raw materials found in the headspace to the amount originally provided to the capsules.
# [2] = Capsule perfume leakage in heavy-duty liquid (HDL) detergent, headspace SPME GC/MS; assay type: physicochemical
# Description: The testing of capsule leakage in liquid compositions (e.g., liquid fabric enhancer/“LFE” compositions and/or heavy-duty liquid/“HDL” detergents) is performed as follows. […] The 1 gram aliquot in the 7 ml vial is then mixed on a stirring plate for 24 h at 500 rpm, thereby ensuring that the capsules are broken by the grinding action of the stir bar against the bottom of the 7 ml vial. Optical microscopy can be used to verify that no more intact capsules remain. In case such capsules are found, the step is to repeated for an additional 24 h, or until all or almost all capsules are broken. Then, the formulation containing broken capsules is introduced into GC vials in a similar manner as for step (a). This yields total oil samples. It is to be noted that the capsule sample and the total oil sample are not analyzed on the same day, as there is a need to prepare the total oil sample after the capsule sample has been removed from storage. […] The perfume oil composition formulated herein is representative of the perfume oil composition that is present in the slurry. Then the free oil formulation is introduced into GC vials in a similar manner as for step (a). This yields reference samples, which must be used when analyzing both the capsule sample and the total oil sample. […] Two headspace vials are prepared for each sample. The sealed headspace vials are then allowed to equilibrate. […] After equilibrating, the samples are analyzed by GC/MS. […] The perfume composition is analyzed by fast GC/MS in full scan mode. Ion extraction of the specific mass for each component is obtained. The leakage is calculated as follows, separately for the capsule sample and total oil sample, where “Area” denotes the area under the chromatogram peak corresponding to the PRM of interest: Once calculated for all PRMs for both the total oil sample and the capsule sample, the corrected PRM leakage can be calculated using the following formula: Once the corrected PRM leakage has been calculated for all PRMs, the Average leakage can be found by taking the arithmetic mean of each corrected PRM leakage. […] The resulting products are stored for one week at 35° C. At the end of the storage period, samples of each product composition are analyzed for perfume leakage out of the capsule using headspace analysis. The data is reported as a percentage, determined by comparing the amount of the individual perfume raw materials found in the headspace to the amount originally provided to the capsules.
# [3] = PRM of Perfume 1 out of Comparative Example 4-1 capsules (polyacrylate shell), LFE Composition 1, 0.25 wt % perfume
# [4] = PRM of Perfume 1 out of Comparative Example 6-1 capsules (no second shell component), LFE Composition 1
# [5] = PRM of Perfume 1 out of Comparative Example 10-1 capsules (per EP2500087B1), LFE Composition 1
# [6] = PRM of Perfume 1 out of Comparative Example 10-2 capsules (per WO2010013250A2, with IPM), LFE Composition 1
# [7] = PRM of Perfume 1 out of Example 2, Sample A capsules, LFE Composition 1 (Ester Quat 1)
# [8] = PRM of Perfume 1 out of Example 2, Sample A capsules, LFE Composition 2 (Ester Quat 2)
# [9] = PRM of Perfume 1 out of Example 2, Sample A capsules, LFE Composition 3 (Ester Quat 3)
# [10] = PRM of Perfume 1 out of Example 4-1 capsules (silica shell), LFE Composition 1, 0.25 wt % perfume
# [11] = PRM of Perfume 1 out of Example 6-1 capsules (w/ second shell component), LFE Composition 1
# [12] = PRM of Perfume 1 out of Example 10-1 capsules (Sample F, Perfume 1/IPM 40/60), LFE Composition 1
# [13] = PRM of Perfume 1 out of Example 10-2 capsules (Sample A), LFE Composition 1
# [14] = PRM of Perfume 2 out of Capsule Sample C, LFE Composition 1
# [15] = PRM of Perfume 3 out of Capsule Sample D, LFE Composition 1
# [16] = PRM of Perfume 1 out of Comparative Example 5-1 capsules (polyacrylate shell)
# [17] = PRM of Perfume 1 out of Comparative example 5-2 capsules (per EP2500087B1)
# [18] = PRM of Perfume 1 out of Comparative example 5-3 capsules (per WO2010013250A2)
# [19] = PRM of Perfume 1 out of Example 5-1 capsules (silica shell)
# [20] = PRM of Perfume 4 out of Comparative Example 9-1 capsules (per EP3078415A), LFE Composition 1
# [21] = PRM of Perfume 4 out of Comparative Example 9-2 capsules (per EP3078415A, additional TEOS), LFE Composition 1
# [22] = PRM of Perfume 4 out of Example 9-1 capsules (Sample E), LFE Composition 1
"Leakage (as %) after 1 week at 35° C. [1, 3] [%]","Leakage (as %) after 1 week at 35° C. [1, 4] [%]","Leakage (as %) after 1 week at 35° C. [1, 5] [%]","Leakage (as %) after 1 week at 35° C. [1, 6] [%]","Leakage (as %) after 1 week at 35° C. [1, 7] [%]","Leakage (as %) after 1 week at 35° C. [1, 8] [%]","Leakage (as %) after 1 week at 35° C. [1, 9] [%]","Leakage (as %) after 1 week at 35° C. [1, 10] [%]","Leakage (as %) after 1 week at 35° C. [1, 11] [%]","Leakage (as %) after 1 week at 35° C. [1, 12] [%]","Leakage (as %) after 1 week at 35° C. [1, 13] [%]","Leakage (as %) after 1 week at 35° C. [1, 14] [%]","Leakage (as %) after 1 week at 35° C. [1, 15] [%]","Leakage (as %) after 1 week at 35° C. [2, 16] [%]","Leakage (as %) after 1 week at 35° C. [2, 17] [%]","Leakage (as %) after 1 week at 35° C. [2, 18] [%]","Leakage (as %) after 1 week at 35° C. [2, 19] [%]","Leakage (as %) after 1 week at 35° C. [1, 20] [%]","Leakage (as %) after 1 week at 35° C. [1, 21] [%]","Leakage (as %) after 1 week at 35° C. [1, 22] [%]",SMILES
5,72,97,96,2.1,1.3,2.0,7,8,26,8,,,1,104,101,28,,,,CC12CCC(CC1)C(C)(C)O2 [Eucalyptol]
9,83,90,95,2.3,1.1,1.2,8,8,18,8,9,9,2,105,102,27,70,76,17,CCC(C)(O)CCCC(C)C (stereo not drawn) [Tetrahydro linalool]
10,86,88,95,2.4,1.2,1.2,8,7,17,7,,,3,107,105,26,,,,CCC(C)CCCC(C)(C)O (stereo not drawn) [Tetrahydro myrcenol]
4,20,89,94,1.2,0.8,1.2,5,7,17,7,6,8,1,107,104,26,67,72,13,CC(=O)OC1CC2CC1C1CC=CC21 (stereo not drawn) [Verdyl acetate]

SMILES,"Leakage (as %) after 1 week at 35° C. [1, 3] [%]","Leakage (as %) after 1 week at 35° C. [1, 4] [%]","Leakage (as %) after 1 week at 35° C. [1, 5] [%]","Leakage (as %) after 1 week at 35° C. [1, 6] [%]","Leakage (as %) after 1 week at 35° C. [1, 7] [%]","Leakage (as %) after 1 week at 35° C. [1, 8] [%]","Leakage (as %) after 1 week at 35° C. [1, 9] [%]","Leakage (as %) after 1 week at 35° C. [1, 10] [%]","Leakage (as %) after 1 week at 35° C. [1, 11] [%]","Leakage (as %) after 1 week at 35° C. [1, 12] [%]","Leakage (as %) after 1 week at 35° C. [1, 13] [%]","Leakage (as %) after 1 week at 35° C. [1, 14] [%]","Leakage (as %) after 1 week at 35° C. [1, 15] [%]","Leakage (as %) after 1 week at 35° C. [2, 16] [%]","Leakage (as %) after 1 week at 35° C. [2, 17] [%]","Leakage (as %) after 1 week at 35° C. [2, 18] [%]","Leakage (as %) after 1 week at 35° C. [2, 19] [%]","Leakage (as %) after 1 week at 35° C. [1, 20] [%]","Leakage (as %) after 1 week at 35° C. [1, 21] [%]","Leakage (as %) after 1 week at 35° C. [1, 22] [%]"
CCOC(=O)C(C)CC (stereo not drawn) [Ethyl 2-methyl butyrate],61,101,100,100,1.3,1.0,2.2,4,6,28,6,21,14,75,103,99,38,,,

# Reference: US12630785B2, “Liquid fabric care compositions comprising capsules” (The Procter & Gamble Company, priority 2020, dated 2026)
